“And” between values parts separate entries of the source, which are not always exact repeats. Identical values can stand only once. Like-named read-outs stand apart in the source and are kept apart here. Marks after values point to notes of the source that are not given here. Values belong to the compound of their own block, whether it stands above or below them.
What was measured:
[1] = test system: interleukin-1 alpha; assay: EPIDERM skin culture irritation test, fecal protease (trypsin-chymotrypsin) insult, IL-1 alpha release; assay type: cell-based, human
Protocol: In order to evaluate the efficacy of the compositions of the invention, a human skin culture was selected to model the response of the human epidermis. EPIDERM skin culture is a cornified, air-interfaced human skin culture. EPIDERM skin culture has multiple layers of progressively differentiated keratinocytes resembling human epidermis. EPIDERM EPI-200 skin culture can be purchased from MatTek Corporation of Ashland, Mass. Experiments using EPIDERM skin culture are conducted in six well plates. Typically, five EPIDERM skin culture inserts are added to five of the six wells. Each well contains one milliliter of pre-warmed media that is the same as the EPIDERM skin culture media. The plates are then incubated in a 37° C., 5% CO2 incubator for thirty minutes. After incubation, 15 microliters of test composition or control are applied to the surface of the EPIDERM skin culture after removing any residual media. The well plates, with the test compositions/control applied, are incubated in the 37° C., 5% CO2 incubator for thirty minutes after which the underlying media is removed and replaced with fresh, pre-warmed media. Next, ten microliters of insult solution, either fecal protease or bile acid, are applied to the surface of the EPIDERM skin culture.
The insult solution is prepared by diluting a 10 mg/ml stock solution in phosphate-buffered saline to a working concentration of 250 µg/ml. The base of the stock solution is 50 mM NaOAcetate, pH 5.5 and 0.15 M NaCl stored at −80° C. […] The bile acid insult solution can be prepared by dissolving 65 mg of cholic acid, 62 mg of deoxycholic acid and 31 mg of chenodeoxycholic acid in 10 ml of phosphate-buffered saline. The bile acid insult components can be purchased from Sigma Chemical Co. of St. Louis, Mo. Phosphate-buffered saline, pH 7.4 (hereinafter “PBS”) can be purchased from Life Technologies of Rockville, Md.
For internal studies, infant feces were collected and the amount of total protease and trypsin activities determined for each of the fecal extracts. To prepare the extract, the feces were suspended in water and vigorously vortexed. After vortexing, the samples were held on ice prior to centrifugation at 15,000 times the force of gravity for 20 minutes. The supernatant was filtered through 0.22 micron cellulose acetate filters and stored at −80° C. until use.
After application of the insult solution, the well plates are incubated for six hours in the 37° C., 5% CO2 incubator. At the end of six hours, the well plates are removed from the incubator, the underlying media is removed and stored at −80° C. The response of the EPIDERM skin culture to the test compositions/control and the insult solution is determined by measuring the amount of interleukin-1 alpha (hereinafter “IL-1”). Interleukin-1 alpha can be quantified using an Interleukin-1 alpha Quantikine Kit available from R&D Systems of Minneapolis, Minn. Interleukin-1 alpha measurements are converted to Log10 for each of the treatments and the averages for each treatment are calculated. In order to determine the ability of the test compositions to reduce skin irritation caused by the biological insults, the percent mean reduction of IL-1 is calculated as follows: [formula]
EPIDERM skin culture studies were conducted to measure the reduction in IL-1 response between compositions of the invention and a fecal protease-induced irritation. The studies were conducted using botanicals that are representative of the invention.

[2] = test system: interleukin-1 alpha; assay: EPIDERM skin culture irritation test, protease and bile acid insult, IL-1 alpha release; assay type: cell-based, human; conditions: 4 mg/ml in water, 30 minutes pretreatment; protease and bile acid insult 6 hours; sample size six
Protocol: An additional set of EPIDERM skin culture experiments was conducted to predict the effect of extracted botanical actives on the irritation response to a protease and bile acid insult. The method for utilizing the EPIDERM skin culture described above was also used for this set of experiments evaluating response to a protease and bile acid insult. The EPIDERM skin culture was pretreated with 15 l of test composition containing 4 mg/ml of epigallocatecin gallate in water for a period of 30 minutes in a 37° C./5% CO2 incubator. The skin culture wells were then treated with 10 µl of a protease and bile acid insult for 6 hours under the same incubation conditions. Phosphate-buffered saline solution of pH 7.4 was used as a negative control. After 6 hours, the underlying media is removed and stored at -80° C. The amount of IL-1 from the media was quantified using an Interleukin-1 alpha Quantikine Kit available from R&D Systems of Minneapolis, Minn. The protease and bile acid insult was prepared by mixing equal volumes of a bile acid insult with a protease insult. The bile acid insult included 13 mg/ml cholic acid (sodium salt), 12.4 mg/ml deoxycholic acid (sodium salt) and 6.2 mg/ml chenodeoxycholic acid (sodium salt) prepared in pH 7.4 phosphate-buffered saline. […]

[3] = target: T1, porcine pancreatic trypsin (Sus scrofa, UniProt P00761); assay: Trypsin inhibition in solution with BAPNA chromogenic substrate; assay type: biochemical; conditions: for Trypsin Inhibition (IC50): solid form dissolved in PBS
T1 construct: purchased Sigma Chemical of St. Louis, Mo; host or cells: pancreas (porcine)
Protocol: More specifically, compositions of the invention were evaluated for their inhibitory effect on porcine pancreatic trypsin in solution. Porcine pancreatic trypsin from Sigma Chemical of St. Louis, Mo. was prepared at a concentration of 1600 ng/ml in 100 mM Tris-HCL pH 8.0-buffer. Twenty-five microliters of the porcine pancreatic trypsin was added to the wells of a NUNC IMMUNO clear 96 well plate. The wells also contained 150 µl of 100 mM Tris-HCL pH 8.0 buffer and 25 µl of a test composition diluted as necessary in PBS. After a fifteen minute incubation at room temperature, the reaction is initiated by adding 50 µl of a 5 mM solution of chromogenic trypsin substrate (N-benzyl-arginine-p-nitroanalide (BAPNA)) to each of the wells. The BAPNA is prepared at 50 mM in neat dimethylsulfoxide and diluted in water to a 5mM working stock solution. In order to measure the progress of the reactions, optical density measurements were taken at 405 nm every 20 seconds (after a two minute delay) for 10 minutes with a THERMOMAX Microplate Reader (Molecular Devices, Sunnyvale, Calif.). […] Below. The IC50 value is based on a dilution of the liquid stock botanical. The actual concentration of the botanical/salt compositions is not known except for those compositions available in solid form. For the solid forms, stock concentrations in PBS can be accurately made up.

[4] = test system: EPIDERM skin culture; assay: MTT viability assay on EPIDERM skin culture after test composition + insult
From the text: (§1) The MTT dye is taken up by the cells. The reduction of the dye as a result of cellular metabolism can be used to measure the cytotoxicity of the test compositions. In order to confirm viability, inserts of the EPIDERM skin culture that have already been subjected to the test compositions and biological insults are removed from their media and are washed consecutively through immersion in three different beakers of PBS. Fresh PBS is used for each test composition or control being evaluated. The PBS is discarded onto paper towel. The EPIDERM skin culture inserts are then patted onto paper towel and placed into the wells of a 24 well plate containing 300 microliters of pre-warmed media. After all of the EPIDERM skin culture inserts are washed, they are transferred to new 24 well plates containing 300 microliters of the MTT reagent. The MTT reagent is thiazolyl blue having the formula 3-[4,5-Dimethylthiazol-2-yl]-2,5-diphenyltetrzoliumbromide. The plates are incubated for 2 hours in a 37° C., 5% CO2 incubator. After incubation, the EPIDERM skin culture inserts are transferred to 24 well plates and are immersed in 2 milliliters of MTT extraction buffer. The extraction buffer extracts the MTT reagent from the cells. The 24 well plates are parafilmed, covered and placed in ZIPLOCK bags to reduce evaporation of the extraction buffer. The covered plates are rocked overnight in the dark. Following overnight rocking, the liquid in the EPIDERM skin culture inserts is decanted back into the wells. The contents of each well are mixed and a 200 microliter aliquot is then removed from each well and transferred to a 96 well plate. The optical density (OD) of the samples is measured at 570 nm using a spectrophotometer. Five hundred seventy nanometers is the optimal wavelength at which to measure the reduced form of MTT reagent. This reading is subtracted from a background reading at 650 nm to improve data quality. Percent viability of each test composition+insult relative to the control+PBS is recorded as the Mean ODtest composition+insult divided by the Mean ODcontrol+PBS; the quotient then multiplied by 100.

[5] = test system: EPIDERM skin culture; conditions: human, 4 mg/ml
From the text: as §1

[6] = 4 mg/ml in PBS, trypsin-chymotrypsin insult (Table 3)

T1 sequence (P00761 9-231): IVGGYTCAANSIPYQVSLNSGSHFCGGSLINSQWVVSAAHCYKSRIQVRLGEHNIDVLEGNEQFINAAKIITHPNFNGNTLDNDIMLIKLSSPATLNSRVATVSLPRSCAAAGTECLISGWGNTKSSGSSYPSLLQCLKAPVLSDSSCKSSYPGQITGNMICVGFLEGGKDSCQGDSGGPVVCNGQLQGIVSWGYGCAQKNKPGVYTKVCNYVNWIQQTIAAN

Compound: O=C(O[C@@H]1Cc2c(O)cc(O)cc2O[C@@H]1c1cc(O)c(O)c(O)c1)c1cc(O)c(O)c(O)c1 [Epigallocatechin gallate]
Mean Reduction of Interleukin-1 Alpha (percentage) ([1]; 0.4% (w/v) in PBS, fecal protease insult 6 hours, one value per set of experiments): 77% and 71% and 50%
IL-1 reduction [2]: 28%
reduction of trypsin activity in solution (in words) ([3]; conclusion from Table 5): effective at reducing trypsin activity in solution
Trypsin Inhibition (IC50) [3]: 0.00002% (w/v)
Viability (percentage) [4, 6]: 126%
Viability (percentage) ([4]; 0.4% (w/v) in PBS + protease insult, relative to control + PBS): 103% and 101% and 112%

Compound: O=C(O[C@@H]1Cc2c(O)cc(O)cc2O[C@@H]1c1ccc(O)c(O)c1)c1cc(O)c(O)c(O)c1 [Epicatechin gallate]
Mean Reduction of Interleukin-1 Alpha (percentage) [1, 6]: 62% (5)*
Viability (percentage) [4, 6]: 143%

Trypsin Inhibition (IC50) [3]: >0.5% (w/v)
Compound: [Cl-].[Cl-].[Sr+2] [Strontium Chloride]
Mean Reduction of Interleukin-1 Alpha (percentage) ([1]; 1% in PBS, fecal protease insult 6 hours, one value per set of experiments): 0% (10)
Mean Reduction of Interleukin-1 Alpha (percentage) ([1]; 10% in PBS, fecal protease insult 6 hours, one value per set of experiments): 15% (10)

Compound: Oc1cc(O)c2c(c1)O[C@H](c1cc(O)c(O)c(O)c1)[C@H](O)C2 [Epigallocatechin]
Mean Reduction of Interleukin-1 Alpha (percentage) [1, 6]: 30% (5)
Viability (percentage) [5]: 125%

Compound: Oc1cc(O)c2c(c1)O[C@H](c1ccc(O)c(O)c1)[C@H](O)C2 [Epicatechin]
Mean Reduction of Interleukin-1 Alpha (percentage) [1, 6]: 24% (5)
Viability (percentage) [4, 6]: 111%

Source: patent US20020120242A1, “Absorbent articles with hydrophilic compositions containing botanicals” (priority 2000, published 2002)
